What was measured:
BBB [1] = conditions: mouse, in vivo
Experimental: PS and Vp Determination in Mice. […] Blood was sampled from the femoral artery at several intervals during the next 15 minutes. Whole blood was sampled directly, using heparinized micro-hematocrit capillary tubes and TCA extracted. The supernatant was separated from the pellet and both were counted in a gamma counter. The radioactivity in the pellet was expressed as a percentage of the total radioactivity found in both the pellet and supernatant. An aliquot of the peptide labeled with ^131I was then injected into the femoral vein 15 seconds prior to sacrifice of the animal to serve as a measure of residual plasma volume (Vp; μl/g). After collection of the final blood sample, the anesthetized animal was sacrificed. […] The permeability coefficient x surface area products (PS; 10^−6 ml/g/s) were then calculated using the Vp as a measure of residual plasma volume based on equations that have been discussed in detail elsewhere (Poduslo and Curran, supra (1996a); Poduslo and Curran, supra (1996b); Wengenack, et al., supra (1997); Poduslo, et al., supra (1998); Poduslo, et al., supra (2000); Poduslo, et al., supra (2001). Statistical evaluations of PS and Vp were performed using ANOVA followed by Bonferroni multiple comparisons.

[2] = tested on: β-amyloid plaques in human AD brain sections; assay: Labeling of AD amyloid plaques in vitro with putrescine- and gadolinium-labeled Aβ; type: binding; conditions: equal amounts of radioactivity
Source text: Labeling of AD Amyloid Plaques In Vitro with Putrescine- and Gadolinium-Labeled Aβ. […] The slides were dipped in emulsion, exposed, and developed according to the instructions. The sections were dehydrated with successive changes of ethanol and xylene and then coverslipped.

β-amyloid plaques = assay: MRI (7 Tesla, T2W/T1W) of post-mortem brain with thioflavin S histologic correlation after IV injection of probe in mice; type: in vivo, APP-PS1 transgenic mice; conditions: for T1 plaque enhancement on T1W images / accelerated T2 relaxation on T2W images: APP-PS1 transgenic mouse, four hours
[3] = tested on: amyloid deposits in AD temporal lobe cortex sections; assay: Labeling of amyloid deposits in vitro in AD temporal lobe cortex sections (film and emulsion autoradiography); type: binding, human; conditions: for specificity of binding for type of amyloid deposit: AD temporal lobe cortex sections in vitro
Experimental: The sections were washed with TBS, pH 7.0 four times and then rinsed briefly with distilled water twice. The sections were allowed to air dry overnight in a box with desiccant at 4° C.
Sections then underwent immunohistochemistry (IH) for amyloid using an anti-Aβ monoclonal mouse antibody (4G8, Senetek). Untreated sections were included as a positive control for antibody staining. After rehydrating with TBS, pH 7.6, the sections were fixed briefly with neutral-buffered, 10% formalin for 3 minutes. The sections were washed with TBS and then blocked with 1.5% normal horse serum in TBS for 30 minutes. The sections were incubated with the anti-Aβ primary antibody at a dilution of 1:1000 in 0.1% BSA/TBS overnight at 4° C. The primary antibody was then visualized using a Vectastain Elite ABC, immunoperoxidase kit with diaminobenzidine (DAB) as a substrate according to the instructions (Vector Laboratories). The sections were allowed to air dry overnight in a box with desiccant at 4° C.
FIGS. 2A-2B are the film autoradiographs. Note the presence of punctate areas of exposed film located predominantly in the regions corresponding to gray matter. This is similar to the distribution of amyloid deposits seen following IH of the tissue sections. It was possible to overlay the two for direct correspondence under the microscope.
In order to definitively correlate the IH with the iodinated peptide by colocalization, the sections were next dipped in an autoradiographic emulsion (Type NTB-3, Kodak). The slides were dipped in emulsion at 43° C. under Safelight illumination in a darkroom. The slides were chilled to solidify the emulsion and then allowed to air dry at room temperature for 3 hours in a light-proof box. The slides were exposed at 4° C. in a light-proof box with desiccant. The slides were developed with Dektol developer (Kodak) and fixed (Kodak) according to the instructions. The sections were dehydrated with successive changes of ethanol and xylene and then coverslipped with a xylene-based mounting media (CMS).

[4] = tested on: parenchymal amyloid deposits; assay: Labeling of amyloid deposits in vivo after i.v. injection in APP, PS1 transgenic mice; conditions: 200 μg i.v., four hours, emulsion autoradiography, PS1 transgenic mice 27 weeks of age
Sequence of parenchymal amyloid deposits (P05067 672-711 limits assumed): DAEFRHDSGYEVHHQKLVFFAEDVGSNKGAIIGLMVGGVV
Source text: These mice develop amyloid deposits and behavioral deficits within 12 weeks of age. Hemizygous transgenic mice (Tg2576) expressing mutant human amyloid precursor protein (APP695) were mated with a second strain of hemizygous transgenic mice (M146L5.1) expressing mutant human presenilin 1 (PS1). Holcomb, L., et al., Nature Med. 4:97-100 (1998). The animals were genotyped for the expression of both transgenes by a dot blot method using a sample of mouse tail DNA. The mice were housed in a virus-free barrier facility under a 12-hour light/dark cycle, with ad lib access to food and water.
After four hours, each animal was perfused with PBS and fixed with neutral-buffered, 10% formalin following an overdose with sodium pentobarbital (75 mg/kg, i.p.). After cryoprotecting in 10% and 30% sucrose in PBS, frozen sections of each brain were cut with a freezing microtome and then processed with anti-Aβ IH and emulsion autoradiography for the presence of radiolabeled amyloid deposits using the same methods described above for the human AD sections.

[5] = in vivo, iv; cited from earlier work
BBB [6] = type: in vivo, Sprague-Dawley rats; conditions: rat
Experimental: Poduslo, J. F. and Curran, G. L., Proc. Natl. Acad. Sci. USA 89:2218-2222 (1992); Poduslo, J. F. and Curran, G. L., Molec. Brain Res. 23:157-162 (1994); and Poduslo, J. F., et al., Proc. Natl. Acad. Sci. USA 9:5705-5709 (1994). Putrescine modification of synthetic human Aβ1-40 was performed by covalent linkage of the polyamine to carboxylic acid groups using carbodiimide at a pH of 6.7. Poduslo, J. F. and Curran, G. L., J. Neurochem. 66:1599-1609 (1996); and Poduslo, J. F. and Curran, G. L., J. Neurochem.
PS and Vp values were determined in normal adult male Sprague-Dawley rats (400-450 g) obtained from Harlan. […] Blood (200 μl) was sampled from the brachial artery at several intervals during the next 15 minutes.

## Gd-Aβ: Aβ (1-40) with DTPA chelating arm at the amino terminus, chelated with gadolinium; Aβ to Gd 1:1
BBB [1]
  effect of gadolinium labeling of Aβ on the PS value: decrease in the PS value in five of the six brain regions, however, this was of non-significant magnitude
[2]
  exposure time required for detection of plaque binding (emulsion autoradiography): nine
β-amyloid plaques; IV injection
  T1 plaque enhancement on T1W images: no significant plaque enhancement
  accelerated T2 relaxation on T2W images: accelerated T2 relaxation was observed in plaques

## Aβ 1-40: synthetic human amyloid β peptide 1-40, native (unmodified); radioiodinated for the measurements [reference compound]
[3]
  specificity of binding for type of amyloid deposit: specific for dense-core, neuritic-type amyloid deposits
[4]
  labeling of parenchymal amyloid deposits in vivo: did not exhibit labeling of any parenchymal amyloid deposits
[5]
  amount of radiolabeled peptide present in PBS-perfused brain: 0.03%

## putrescine-gadolinium-amyloid-β peptide [PUT-Gd-Aβ]
[2]
  exposure time required for detection of plaque binding (emulsion autoradiography): one
β-amyloid plaques; APP-PS1 mice, IV injection, T1W MRI, mean ± SEM, n = 15 plaques
  T1 CNR (contrast-to-noise ratio): 7.13 ± 1.03
β-amyloid plaques; APP-PS1 mice, IV injection, T1W MRI, mean ± SEM, n = 15 plaques, maximum intensity
  T1 PBR (plaque-to-background voxel intensity ratio): 1.24 ± 0.04
β-amyloid plaques; APP-PS1 mice, IV injection, T2W MRI, mean ± SEM, n = 15 plaques
  T2 CNR (contrast-to-noise ratio): −8.95
β-amyloid plaques; APP-PS1 mice, IV injection, T2W MRI, mean ± SEM, n = 15 plaques, minimum intensity
  T2 PBR (plaque-to-background voxel intensity ratio): 0.29 ± 0.03
β-amyloid plaques; APP-PS1 mice, T1 images
  fold increase of T1 CNR in injected mice: 4.2-9.4 fold
  fold increase of T1 PBR in injected mice: 1.2 fold
β-amyloid plaques; APP-PS1 mouse, T1W, interpretation of pixel proportion
  cortical tissue volume occupied by enhanced plaque: roughly 10%
β-amyloid plaques; APP-PS1 mouse, T1W, mean (±S.D.) across 10 images, 812.5×812.5 μm ROI
  proportion of pixels within cortical ROI whose intensity exceeded the 4-S.D. threshold: 9.9%
β-amyloid plaques; IV injection
  T1 plaque enhancement on T1W images: many focal areas of accelerated T1 relaxation visible as bright spots
  accelerated T2 relaxation on T2W images: Numerous focal areas of accelerated T2 relaxation
β-amyloid plaques; non-transgenic mouse, compared with PBS-injected non-transgenic mouse (no focal T1 areas)
  MRI features in non-transgenic mouse (focal areas of accelerated T1 relaxation): yielded the same results

## NCCCCN [putrescine, reference compound]
[3]; 10-fold excess unbound putrescine, 100 pM 125I-Aβ1-40 or 125I-PUT-Aβ1-40
  effect of unbound putrescine on binding of iodinated peptide to amyloid deposits: no appreciable effect on binding of iodinated peptide

## O=C([O-])CN(CCN(CC(=O)[O-])CC(=O)O)CCN(CC(=O)[O-])CC(=O)O.[Gd+3] [Gd-DTPA, gadolinium diethylenetriaminepentaacetic acid, reference compound]
β-amyloid plaques; IV injection
  T1 plaque enhancement on T1W images: No evidence of T1 plaque enhancement
  accelerated T2 relaxation on T2W images: expected focal areas of T2 acceleration that corresponded to plaques

## PUT Aβ 1-40: synthetic human Aβ1-40 with putrescine covalently linked to carboxylic acid groups using carbodiimide; radioiodinated for the measurements
BBB [6]
  increase of permeability at the blood brain barrier by putrescine modification: two-fold
[3]
  specificity of binding for type of amyloid deposit: specific for dense-core, neuritic-type amyloid deposits
[3]; equal amounts of radioactivity and exposure time (6 days), versus 125I-Aβ1-40
  density of exposed silver grains on amyloid deposits (emulsion autoradiography): higher density of silver grains
[4]
  labeling of parenchymal amyloid deposits in vivo: able to cross the BBB and bind to amyloid deposits in vivo
[5]
  amount of radiolabeled peptide present in PBS-perfused brain: 0.35%
